In patent US6358998B1, “Body fat-reducing agent comprising dioxabicyclo[3.3.0] octane derivative as active ingredient” (Rinoru Oil Mills Co., LTD, priority 1999, dated 2002):

How the values were obtained:
fat tissues of rats = assay: Example 1: four-week feeding of experimental diet to rats, organ and fat tissue weights; assay type: in vivo, rat; conditions: Sprague-Dawley male rats, four weeks of feeding, compared with the control group
Text: Sprague-Dawley male rats of four weeks of age were acclimatized, and then divided into three groups (each group consisting of 8 rats), a 1.0% linoleic acid group (a control group), 0.2% sesamin group, and 0.2% sesamin+1.0% CLA group. The experimental diet shown in Table 1 and water were then freely fed to these three groups of rats. […] Four weeks after the initiation of feeding, the 8 rats constituting each group were scarified, and the organs were taken out.

perfused liver = assay: Example 2: liver perfusion experiment, triglyceride secretion; assay type: in vivo, rat; conditions: Sprague-Dawley male rats, three weeks of feeding, compared with the control group
Text: Sprague-Dawley male rats of four weeks of age were acclimatized for 5 to 11 days, and then divided into three groups (each group consisting of 5 rats), a 1.0% linoleic acid group (a control group), 0.2% sesamin group, and 0.2% sesamin+1.0% CLA group. In the experiment, CE-2 (lipid content 4.5%) manufactured by CLEA JAPAN INC. with 1.5% of a soybean oil being added thereto was used as a basic diet, and the experimental diet was freely fed to the rats. […] Three weeks after the initiation of feeding, a liver perfusion experiment was carried out.

c1cc2c(cc1[C@H]1OC[C@H]3[C@@H]1CO[C@@H]3c1ccc3c(c1)OCO3)OCO2 [Sesamin, sesamin]
reduced: weight of fat tissues around epididymis (fat tissues of rats) | weight of fat tissues around kidney (fat tissues of rats) | amount of triglyceride secreted from the perfused liver (perfused liver)
